For four compounds, EC50 and Ki results are on record in patent publication US10005824B2, “Selective PYY compounds and uses thereof” (Novo Nordisk A/S, priority 2015, dated 2018).

Where two headings read alike, the source gives them in different places.

In general, EC50 refers to the midpoint of the concentration-response curve. Read a high EC50 as weaker potency. One may read the Ki as the equilibrium dissociation constant of an inhibitor or competing ligand from its target.

One assay addresses T1, human NPY Y2 receptor (Homo sapiens, UniProt P49146).
T1 construct: host or cells: HEK-293 cells that also express a cAMP-sensitive calcium channel
T1 sequence (P49146 1-381): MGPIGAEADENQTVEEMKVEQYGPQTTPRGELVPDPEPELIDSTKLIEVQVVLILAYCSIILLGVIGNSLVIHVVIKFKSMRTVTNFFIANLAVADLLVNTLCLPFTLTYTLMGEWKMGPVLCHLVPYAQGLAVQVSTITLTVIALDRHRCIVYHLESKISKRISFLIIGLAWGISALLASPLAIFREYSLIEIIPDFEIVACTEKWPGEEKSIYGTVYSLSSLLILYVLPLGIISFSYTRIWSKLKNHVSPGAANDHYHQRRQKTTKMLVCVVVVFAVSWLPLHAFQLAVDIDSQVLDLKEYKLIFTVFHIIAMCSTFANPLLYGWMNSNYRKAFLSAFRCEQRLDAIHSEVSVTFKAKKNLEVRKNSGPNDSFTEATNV
Kind of assay: Actone functional potency assay (Y2 in vitro potency, whole cell). Type of assay: cell-based. An excerpt:
The purpose of this example is to test the activity, or potency, of the PYY compounds in vitro. The Y2 in vitro potency is the measure of the activation of the human Y2 receptor subtype in a whole cell assay.
Actone Functional Potency Assay
The Neuropeptide Y (NPY) receptors are Gi-coupled seven trans-membrane receptors that mainly signal through the cAMP dependent pathway by inhibiting adenylate cyclase activity which results in a decrease of cAMP production from ATP. The Actone assay is based on a modified calcium channel that has a selective binding for cAMP, resulting in cellular calcium influx, detected by a calcium responsive dye. In order to measure decreased levels of cAMP, as result of NPY receptor activation, the β1/β2-adrenoreceptor agonist, isoproterenol, is added to activate adenylate cyclase and increases cAMP levels in the cell. Decreased cellular calcium concentrations, reflecting a decrease of cAMP levels due to NPY receptor activation, is detected as a decrease in fluorescence from the calcium sensitive dye.

For a further assay, the target named is T2, human Y1 receptor (Homo sapiens, UniProt P25929).
T2 construct: expressed in transfected cells; host or cells: BHK-21 clone 6-482-8, IPTG-induced (membrane preparation)
T2 sequence (P25929 1-384): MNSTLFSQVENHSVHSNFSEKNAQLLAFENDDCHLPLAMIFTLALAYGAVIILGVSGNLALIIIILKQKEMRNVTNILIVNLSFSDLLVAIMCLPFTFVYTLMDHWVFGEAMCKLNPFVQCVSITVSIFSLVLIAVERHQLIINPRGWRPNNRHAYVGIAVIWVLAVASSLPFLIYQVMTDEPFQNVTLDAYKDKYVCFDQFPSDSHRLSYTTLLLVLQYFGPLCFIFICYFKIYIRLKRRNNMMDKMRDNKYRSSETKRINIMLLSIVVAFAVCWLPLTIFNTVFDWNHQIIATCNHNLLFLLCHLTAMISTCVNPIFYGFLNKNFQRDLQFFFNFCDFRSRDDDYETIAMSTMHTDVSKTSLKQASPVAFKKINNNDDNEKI
The experiment in a line: Scintillation proximity assay (SPA) receptor binding, Y1. On the procedure: (§1) The purpose of this example is to test the in vitro binding of the PYY compounds to the Y1, Y2, Y4 and Y5 receptor subtypes, respectively. The receptor binding affinity is a measure of affinity of a compound for the human Y1, Y2, Y4 and Y5 receptor subtypes, respectively.
(§2) Scintillation Proximity Assay (SPA)
(§3) NPY-Receptor Expressing Cell Lines.
(§4) All cells were cultured at +37° C. in a humidified atmosphere with 5% CO2. […] CHO-K1 cells stably expressing the human Y2 receptor (P49146, NPY2R_HUMAN, Uniprot) were cultured in DMEM F-12 with 10% FBS, 1% P/S, 150 μg/ml Hygromycin B and 10 μg/ml Puromycin antibiotic. CHO-K1 cells stably expressing the human Y4 receptor (P50391, NPY4R_HUMAN, Uniprot) were cultured in DMEM F-12 with 10% FBS, 1% P/S, 10 μg/ml Puromycin. HEK-293 cells stably expressing the human Y5 receptor (Q15761, NPY5R_HUMAN, Uniprot) were cultured in DMEM F-12 medium containing 10% FBS, 1% Penicillin-Streptomycin, 250 μg/ml G418 and 1 μg/ml puromycin.
(§5) The homogenate was centrifuged at 35000 g using an ultracentrifuge for 10 minutes at +4° C. and the supernatant was discarded and fresh homogenization buffer added. Homogenization of the pellet was repeated a total of three times.
(§6) Human Y receptor SPA binding assay were performed in white 96-well plates in a total volume of 200 μl per well.
(§7) Plates were sealed and incubated at +25° C. for 2 hours in a plate shaker set at 400 rpm and thereafter centrifuged at 1500 rpm for 10 minutes prior to reading of luminescence on a microplate scintillation and luminescence counter. […] Displacement of radioligand was measured as reduction in luminescence and IC50 values were calculated by nonlinear regression analysis of sigmoidal dose-response curves.
On the technique in general: SPA uses beads or plates that emit light when radiolabelled molecules are held near them.

A further assay deals with T3, human Y4 receptor (Homo sapiens, UniProt P50391).
T3 construct: expressed in transfected cells; host or cells: CHO-K1 (membrane preparation)
The experiment in a line: Scintillation proximity assay (SPA) receptor binding, Y4. To be noted: membranes of CHO-K1 cells, [125I]-Pancreatic Polypeptide. As for the experimental part:
as §1, §2, §3, §4, §5, §6, §7

T3 sequence (P50391 whole entry): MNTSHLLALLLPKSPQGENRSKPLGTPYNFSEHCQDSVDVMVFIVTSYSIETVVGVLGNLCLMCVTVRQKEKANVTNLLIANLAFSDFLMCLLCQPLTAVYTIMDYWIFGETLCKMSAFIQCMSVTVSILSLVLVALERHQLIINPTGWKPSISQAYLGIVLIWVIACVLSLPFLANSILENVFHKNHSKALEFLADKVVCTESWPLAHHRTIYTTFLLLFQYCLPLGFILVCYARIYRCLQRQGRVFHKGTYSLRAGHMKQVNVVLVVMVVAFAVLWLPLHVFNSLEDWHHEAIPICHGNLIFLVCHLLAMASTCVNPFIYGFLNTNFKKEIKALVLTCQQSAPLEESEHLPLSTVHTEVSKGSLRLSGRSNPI

Turning to `CC(C)CC(=O)N[C@@H](CCCNC(=N)N)C(=O)N1CCC[C@H]1C(=O)N[C@@H](CCC(=O)O)C(=O)N[C@@H](CCCCNC(=O)CC[C@H](NC(=O)CCCCCCCCCCCCCCCCC(=O)O)C(=O)O)C(=O)N1CCC[C@H]1C(=O)N[C@H](C(=O)N[C@@H](CCC(=O)O)C(=O)N[C@@H](CC(=O)O)C(=O)N[C@@H](C)C(=O)N[C@@H](CO)C(=O)N1CCC[C@H]1C(=O)N[C@@H](CCC(=O)O)C(=O)N[C@@H](CCC(=O)O)C(=O)N[C@@H](CC(C)C)C(=O)N[C@@H](CCC(N)=O)C(=O)N[C@@H](CCCNC(=N)N)C(=O)N[C@@H](Cc1ccc(O)cc1)C(=O)N[C@@H](Cc1ccc(O)cc1)C(=O)N[C@@H](CCC(N)=O)C(=O)N[C@@H](CO)C(=O)N[C@@H](CC(C)C)C(=O)N[C@@H](CCCNC(=N)N)C(=O)N[C@@H](Cc1c[nH]cn1)C(=O)N[C@@H](Cc1ccc(O)cc1)C(=O)N[C@@H](Cc1ccc(O)cc1)C(=O)N[C@@H](CC(N)=O)C(=O)N[C@@H](Cc1c[nH]c2ccccc12)C(=O)N[C@@H](CC(C)C)C(=O)N[C@H](C(=O)N[C@@H](CCCNC(=N)N)C(=O)N[C@@H](CCC(N)=O)C(=O)N[C@@H](CCCNC(=N)N)C(=O)N[C@@H](Cc1ccc(O)cc1)C(N)=O)[C@@H](C)O)[C@@H](C)O` [Compound 43, N{alpha-4}-(3-Methylbutanoyl)-N{Epsilon-7}-[(4S)-4-carboxy-4-(17-carboxy-heptadecanoylamino)butanoyl]-[Arg4,Lys7,Thr9,Gln18,Gln22,Tyr28,Trp30,Leu31]hPYY(4-36)], on human NPY Y2 receptor, the EC50 is 0.00077 µM. This compound returned a Ki on human Y1 receptor above 10 µM. With `CC(C)CC(=O)N[C@@H](CCCNC(=N)N)C(=O)N1CCC[C@H]1C(=O)N[C@@H](CCC(=O)O)C(=O)N[C@@H](C)C(=O)N1CCC[C@H]1C(=O)NCC(=O)N[C@@H](CCCCNC(=O)COCCOCCNC(=O)COCCOCCNC(=O)CC[C@H](NC(=O)CCCCCCCCCCCCCCCCC(=O)O)C(=O)O)C(=O)N[C@@H](CC(=O)O)C(=O)N[C@@H](C)C(=O)N[C@@H](CO)C(=O)N1CCC[C@H]1C(=O)N[C@@H](CCC(=O)O)C(=O)N[C@@H](CCC(=O)O)C(=O)N[C@@H](CC(C)C)C(=O)N[C@@H](CCC(N)=O)C(=O)N[C@@H](CCCNC(=N)N)C(=O)N[C@@H](Cc1ccc(O)cc1)C(=O)N[C@@H](Cc1ccc(O)cc1)C(=O)N[C@@H](CCC(=O)O)C(=O)N[C@@H](CO)C(=O)N[C@@H](CC(C)C)C(=O)N[C@@H](CCCNC(=N)N)C(=O)N[C@@H](Cc1c[nH]cn1)C(=O)N[C@@H](Cc1ccc(O)cc1)C(=O)N[C@@H](Cc1ccc(O)cc1)C(=O)N[C@@H](CC(N)=O)C(=O)N[C@@H](Cc1c[nH]c2ccccc12)C(=O)N[C@@H](CC(C)C)C(=O)N[C@H](C(=O)N[C@@H](CCCNC(=N)N)C(=O)N[C@@H](CCC(N)=O)C(=O)N[C@@H](CCCNC(=N)N)C(=O)N[C@@H](Cc1ccc(O)cc1)C(N)=O)[C@@H](C)O` [Compound 51, N{alpha-4}-(3-Methylbutanoyl)-N{Epsilon-10}-[2-[2-[2-[[2-[2-[2-[[(4S)-4-carboxy-4-(17-carboxyheptadecanoylamino)butanoyl]amino]ethoxy]ethoxy]acetyl]-amino]ethoxy]ethoxy]acetyl]-[Arg4,Lys10,Gln18,Glu22,Tyr28,Trp30,Leu31]-PYY(4-36)], the Ki at human Y1 receptor is 2.41 µM; on human Y4 receptor (Y4 Ki), above 10 µM. Turning to `CC(C)CC(=O)N[C@@H](CCCNC(=N)N)C(=O)N1CCC[C@H]1C(=O)N[C@@H](CCC(=O)O)C(=O)N[C@@H](C)C(=O)N1CCC[C@H]1C(=O)NCC(=O)N[C@@H](CCCCNC(=O)COCCOCCNC(=O)COCCOCCNC(=O)CC[C@H](NC(=O)CCCCCCCCCCCCCCCCC(=O)O)C(=O)O)C(=O)N[C@@H](CC(=O)O)C(=O)N[C@@H](C)C(=O)N[C@@H](CO)C(=O)N1CCC[C@H]1C(=O)N[C@@H](CCC(=O)O)C(=O)N[C@@H](CCC(=O)O)C(=O)N[C@@H](CC(C)C)C(=O)N[C@@H](CCC(N)=O)C(=O)N[C@@H](CCCNC(=N)N)C(=O)N[C@@H](Cc1ccc(O)cc1)C(=O)N[C@@H](Cc1ccc(O)cc1)C(=O)N[C@@H](C)C(=O)N[C@@H](CCC(=O)O)C(=O)N[C@@H](CC(C)C)C(=O)N[C@@H](CCCNC(=N)N)C(=O)N[C@@H](Cc1c[nH]cn1)C(=O)N[C@@H](Cc1ccc(O)cc1)C(=O)N[C@@H](Cc1ccc(O)cc1)C(=O)N[C@@H](CC(N)=O)C(=O)N[C@@H](Cc1c[nH]c2ccccc12)C(=O)N[C@@H](CC(C)C)C(=O)N[C@H](C(=O)N[C@@H](CCCNC(=N)N)C(=O)N[C@@H](CCC(N)=O)C(=O)N[C@@H](CCCNC(=N)N)C(=O)N[C@@H](Cc1ccc(O)cc1)C(N)=O)[C@@H](C)O` [Compound 52, N{alpha-4}-(3-Methylbutanoyl)-N{Epsilon-10}-[2-[2-[2-[[2-[2-[2-[[(4S)-4-carboxy-4-(17-carboxyheptadecanoylamino)butanoyl]amino]ethoxy]ethoxy]acetyl]amino]-ethoxy]ethoxy]acetyl]-[Arg4,Lys10,Gln18,Glu23,Tyr28,Trp30,Leu31]-PYY(4-36)], the Ki was above 10 µM at human Y1 receptor (membranes of BHK-21 cells, [125I]-PYY(1-36), read-out: Y1 Ki) and 5.69 µM at human Y4 receptor (read-out: Y4 Ki).

At human NPY Y2 receptor, `CC(C)CC(=O)N[C@@H](CCCNC(=N)N)C(=O)N1CCC[C@H]1C(=O)N[C@@H](CCC(=O)O)C(=O)N[C@@H](C)C(=O)N1CCC[C@H]1C(=O)N1CCC[C@H]1C(=O)N[C@@H](CCCCNC(=O)CC[C@H](NC(=O)COCCOCCNC(=O)CC[C@H](NC(=O)CCCCCCCCCCCCCCCCC(=O)O)C(=O)O)C(=O)O)C(=O)N[C@@H](CC(=O)O)C(=O)N[C@@H](C)C(=O)N[C@@H](CO)C(=O)N1CCC[C@H]1C(=O)N[C@@H](CCC(=O)O)C(=O)N[C@@H](CCC(=O)O)C(=O)N[C@@H](CC(C)C)C(=O)N[C@@H](CCC(N)=O)C(=O)N[C@@H](CCCNC(=N)N)C(=O)N[C@@H](Cc1ccc(O)cc1)C(=O)N[C@@H](Cc1ccc(O)cc1)C(=O)N[C@@H](CCC(=O)O)C(=O)N[C@@H](CO)C(=O)N[C@@H](CC(C)C)C(=O)N[C@@H](CCCNC(=N)N)C(=O)N[C@@H](Cc1c[nH]cn1)C(=O)N[C@@H](Cc1ccc(O)cc1)C(=O)N[C@@H](Cc1ccc(O)cc1)C(=O)N[C@@H](CC(N)=O)C(=O)N[C@@H](Cc1c[nH]c2ccccc12)C(=O)N[C@@H](CC(C)C)C(=O)N[C@H](C(=O)N[C@@H](CCCNC(=N)N)C(=O)N[C@@H](CCC(N)=O)C(=O)N[C@@H](CCCNC(=N)N)C(=O)N[C@@H](Cc1ccc(O)cc1)C(N)=O)[C@@H](C)O` [Compound 54, N{alpha-4}-(3-Methylbutanoyl)-N{Epsilon-10}-[(4S)-4-carboxy-4-[[2-[2-[2-[[(4S)-4-carboxy-4-(17-carboxyheptadecanoylamino)butanoyl]amino]ethoxy]ethoxy]-acetyl]amino]butanoyl]-[Arg4,Pro9,Lys10,Gln18,Glu22,Tyr28,Trp30,Leu31]-PYY(4-36)] gave an EC50 of 0.0016 µM.
